Assay results published in patent publication US9546195B2, “Hydrophobic ceragenin compounds and devices incorporating same” (BRIGHAM YOUNG UNIVERSITY, priority 2011, dated 2017).

Legend:
[1] = tested on: P. aeruginosa; settings: elution from lenses, inocula 10^6 CFU P. aeruginosa; cited from earlier work
[2] = Elution of CSA-138 from hydrogel contact lenses, LC/MS with mass-labeled internal standard; format: physicochemical; settings: lenses with CSA-138 incorporated at 1%; LC/MS detection limit about 2 μg/ml
Description: To better understand the mechanism by which hydrophobic ceragenin compounds can prevent bacterial colonization, the bonding between CSA-138 and a hydrogel used in contact lenses was evaluated. In a first example, we determined the rate at which CSA-138 elutes from a hydrogel suitable for use in contact lenses. To quantify the amount of ceragenin eluting from the hydrogel, we used LC/MS using a mass-labeled internal standard. However, this method only gave detection limits of about 2 μg/ml, and we were able to effectively kill bacteria at constant elution rates below the detection limit.

[3] = tested on: S. aureus; settings: elution from lenses, inocula 10^6 CFU S. aureus; cited from earlier work
[4] = tested on: S. aureus; assay: MIC of CSA-138 for S. aureus; format: cell-based; settings: Staphylococcus aureus
[5] = Elution of radiolabeled CSA-138 from hydrogel contact lenses, scintillation counting; format: physicochemical
Description: To decrease the detection limit for CSA-138, we prepared a radiolabeled version of CSA-138 (CSA-138T2), incorporated it into contact lenses, and quantified its elution from lenses using scintillation counting.
Lenses containing 1% CSA-138 were stored in 0.5 mL phosphate buffered saline (PBS) prior to testing. One set of lenses was autoclaved for 45 min before elution studies were performed. For elution studies, lenses were suspended in 2 ml aliquots of PBS, 10% TSB growth medium, 10% TSB growth medium containing 10^6 CFU of Staphylococcus aureus, or 10% TSB growth medium containing 10^6 CFU of Pseudomonas aeruginosa. Corresponding aliquots were exchanged every 24 h, including bacterial inocula. Samples were removed every 24 h and analyzed for the presence of CSA-138 using scintillation counting. A standard curve was generated to correlate counts per minute to concentration of CSA-138. All experiments were performed in triplicate.

[6] = tested on: P. aeruginosa; assay: MIC of CSA-138 for P. aeruginosa; format: cell-based; settings: Pseudomonas aeruginosa
[7] = tested on: microbes; assay: Ability to elute from polymer and kill microbes; settings: compared with other ceragenins

| SMILES | prevents colonization [1] | time until elution fell below detection limits [2] | prevents colonization, consecutive days [3] | MIC [4] | elution in the presence of bacteria ([5]; 10% TSB with 10^6 CFU S. aureus (nine days) or P. aeruginosa (eight days), FIGS. 6 and 7) | elution on the first day ([5]; lenses containing 1% CSA-138, suspended in 2 ml PBS, first day (FIG. 3)) | time until elution of CSA-138 drops below 1 μg/ml ([5]; trend of FIG. 5 extended) | MIC [6] | ability to elute and kill microbes [7] |
| --- | --- | --- | --- | --- | --- | --- | --- | --- | --- |
| CCCCCCCCCCCCCNCCC[C@@H](C)[C@H]1CC[C@H]2[C@@H]3[C@H](OCCCN)C[C@@H]4C[C@H](OCCCN)CC[C@]4(C)[C@H]3C[C@H](OCCCN)[C@]12C [CSA-138] | 19 days | within five days | 30 days | 0.5 µg/mL | fluctuated substantially | about 2.2 μg/ml | about 40 days | 1 µg/mL | – |
| CCCCCCCCCCNCCC[C@@H](C)[C@H]1CC[C@H]2[C@@H]3[C@H](OCCCN)C[C@@H]4C[C@H](OCCCN)CC[C@]4(C)[C@H]3C[C@H](OCCCN)[C@]12C [CSA-136] | – | – | – | – | – | – | – | – | advantageous over CSA-135 |
